Measured values: PubChem BioAssay (NCI)
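48-hour exposure; five concentrations; linearly interpolated endpoints. TGI is the concentration that stops growth completely.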

Columns and labels:
Experiment in all cases: NCI anticancer screen, dose series, 48 h
[1] = test system: EKVX NSCLC
[2] = test system: K-562 leukemia
[3] = test system: SF-268 CNS
[4] = test system: SK-MEL-2 melanoma
[5] = test system: SNB-75 CNS
[6] = test system: SF-295 CNS
[7] = test system: SNB-19 CNS

Cc1cccc(-c2cc(=O)c3c(C)ccnc3[nH]2)c1
TGI [1]: > 100 µM | TGI [2]: > 100 µM | TGI [3]: > 100 µM | TGI [4]: > 100 µM | TGI [5]: > 100 µM

CN(CCc1ccccn1)C(=S)N/N=C/c1ccccn1
TGI [2]: 0.0493 µM | TGI [3]: > 100 µM | TGI [6]: > 43.5 µM | TGI [4]: 0.27 µM | TGI [7]: > 100 µM | TGI [5]: > 100 µM

CCCCCCCCCCCOCCC1C(C(C)OCCN2CCCC2)OC2OC(C)(C)OC21 (configuration not stated)
TGI [1]: 10.8 µM | TGI [3]: 16 µM | TGI [6]: 5.71 µM | TGI [4]: 3.51 µM | TGI [7]: 13.7 µM | TGI [5]: 7.07 µM

Cn1c(=O)n2n(c1=O)C1C(=CC2)C2C=CC1n1c(=O)n(C)c(=O)n12 (configuration not stated)
TGI [1]: > 100 µM | TGI [2]: > 100 µM | TGI [3]: > 100 µM | TGI [6]: > 100 µM | TGI [4]: > 100 µM | TGI [7]: > 100 µM | TGI [5]: > 100 µM

COc1ccc(N2C(=O)CSC2c2cc(OC)c(OC)c(OC)c2)cc1 (configuration not stated)
TGI [1]: > 100 µM | TGI [2]: > 100 µM | TGI [3]: > 100 µM | TGI [6]: 71.9 µM | TGI [4]: > 100 µM | TGI [7]: 80.8 µM

Cc1cc(=O)[nH]c(S(=O)(=O)NC(=S)Nc2ccc(Br)cc2)n1
TGI [1]: > 100 µM | TGI [3]: > 100 µM | TGI [6]: > 100 µM | TGI [4]: > 100 µM | TGI [7]: > 100 µM | TGI [5]: > 100 µM

Nc1ncc(Cc2nn3c(COc4ccc(Cl)cc4)nnc3s2)s1
TGI [1]: > 100 µM | TGI [2]: > 100 µM | TGI [3]: > 100 µM | TGI [6]: > 100 µM | TGI [4]: > 100 µM | TGI [7]: > 100 µM | TGI [5]: > 100 µM

COC(=O)C1CC(C=O)=C(SC)N1 (configuration not stated)
TGI [1]: > 50 µM | TGI [2]: > 50 µM | TGI [3]: > 50 µM | TGI [6]: > 50 µM | TGI [4]: > 50 µM | TGI [7]: > 50 µM | TGI [5]: > 50 µM

CCCCN=C(OC1C=CCCC1)SC (configuration not stated)
TGI [1]: > 100 µM | TGI [2]: > 100 µM | TGI [3]: > 100 µM | TGI [6]: > 100 µM | TGI [7]: > 100 µM | TGI [5]: > 100 µM

OCC(CO)CC1COc2ccccc2O1 (configuration not stated)
TGI [1]: > 10 µM | TGI [2]: > 10 µM | TGI [3]: > 10 µM | TGI [6]: > 10 µM | TGI [4]: > 10 µM | TGI [7]: > 10 µM | TGI [5]: > 10 µM

Cn1c(=O)c2[nH]cnc2n(C)c1=O
TGI [1]: > 100 µM | TGI [2]: > 100 µM | TGI [4]: > 100 µM

C=C1C(=O)O[C@H]2[C@@H](O)[C@H](C)CCC/C(C)=C/CC[C@@]3(C)O[C@@H]3C[C@@H]12
TGI [1]: 19 µM | TGI [2]: > 100 µM | TGI [3]: 22 µM | TGI [6]: 34.9 µM | TGI [4]: 48.9 µM | TGI [7]: 37.5 µM | TGI [5]: 29.6 µM

Fc1ccccc1C1SCC2=Nc3ccccc3CN21 (configuration not stated)
TGI [1]: > 100 µM | TGI [2]: > 100 µM | TGI [3]: > 100 µM | TGI [6]: > 100 µM | TGI [4]: > 100 µM | TGI [7]: > 100 µM | TGI [5]: > 100 µM

CN(C)CCCN1C(=O)N(CCCN(C)C)c2c3cc(O)ccc3nc3c([N+](=O)[O-])ccc1c23
TGI [2]: 23.7 µM | TGI [3]: 26.3 µM | TGI [6]: > 100 µM | TGI [4]: 29.8 µM | TGI [7]: 23.8 µM | TGI [5]: > 100 µM

CC(C)=CCC/C(C)=C/CCC1(C)C2COC(=O)C21 (configuration not stated)
TGI [1]: > 100 µM | TGI [2]: 49.2 µM | TGI [3]: > 100 µM | TGI [6]: > 100 µM | TGI [4]: > 100 µM | TGI [7]: > 100 µM
